In ChEMBL document CHEMBL1149505 (Bioorg Med Chem Lett, 2006):

How the values were obtained:
[1] = biological target: Synaptic vesicular amine transporter (Rattus norvegicus, UniProt Q01827); assay: Inhibition of [3H]DTBZ binding to VMAT2 in rat synaptic vesicle membrane; format: cell membranes
[2] = biological target: Sodium-dependent dopamine transporter (Rattus norvegicus, UniProt P23977); assay: Inhibition of [3H]DA uptake at DAT in rat striatal synaptosomes; format: subcellular, Brain
[3] = biological target: Neuronal acetylcholine receptor; alpha4/beta2 (Rattus norvegicus, UniProt P09483+P12390); assay: Inhibition of [3H]NIC binding to alpha-4-beta-2 nAChR in rat brain membrane; format: cell membranes
[4] = biological target: Neuronal acetylcholine receptor subunit alpha-7 (Rattus norvegicus, UniProt Q05941); assay: Inhibition of [3H]MLA binding to alpha-7 nAChR in rat brain membrane; format: cell membranes
[5] = biological target: Sodium-dependent serotonin transporter (Rattus norvegicus, UniProt P31652); assay: Inhibition of [3H]5-HT uptake at SERT in rat hippocampal synaptosomes; format: subcellular, Hippocampus
Sequence of Sodium-dependent serotonin transporter (P31652 whole entry): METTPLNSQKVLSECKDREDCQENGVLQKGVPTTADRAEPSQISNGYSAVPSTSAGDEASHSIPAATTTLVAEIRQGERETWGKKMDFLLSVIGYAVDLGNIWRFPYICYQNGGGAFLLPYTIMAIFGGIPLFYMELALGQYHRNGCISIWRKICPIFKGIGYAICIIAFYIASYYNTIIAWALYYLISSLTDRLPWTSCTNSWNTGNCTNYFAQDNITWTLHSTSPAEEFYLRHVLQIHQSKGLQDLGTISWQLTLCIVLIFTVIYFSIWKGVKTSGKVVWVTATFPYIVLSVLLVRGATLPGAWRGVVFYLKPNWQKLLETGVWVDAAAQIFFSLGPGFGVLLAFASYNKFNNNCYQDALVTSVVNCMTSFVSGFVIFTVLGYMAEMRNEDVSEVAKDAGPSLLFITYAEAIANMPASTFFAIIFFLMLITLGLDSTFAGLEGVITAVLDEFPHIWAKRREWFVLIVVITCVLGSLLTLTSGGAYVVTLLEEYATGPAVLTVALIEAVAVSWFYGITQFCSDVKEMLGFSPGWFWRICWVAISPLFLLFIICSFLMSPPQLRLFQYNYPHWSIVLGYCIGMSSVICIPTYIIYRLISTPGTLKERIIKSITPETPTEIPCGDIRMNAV

Sequence of Neuronal acetylcholine receptor; alpha4/beta2 (P09483 whole entry): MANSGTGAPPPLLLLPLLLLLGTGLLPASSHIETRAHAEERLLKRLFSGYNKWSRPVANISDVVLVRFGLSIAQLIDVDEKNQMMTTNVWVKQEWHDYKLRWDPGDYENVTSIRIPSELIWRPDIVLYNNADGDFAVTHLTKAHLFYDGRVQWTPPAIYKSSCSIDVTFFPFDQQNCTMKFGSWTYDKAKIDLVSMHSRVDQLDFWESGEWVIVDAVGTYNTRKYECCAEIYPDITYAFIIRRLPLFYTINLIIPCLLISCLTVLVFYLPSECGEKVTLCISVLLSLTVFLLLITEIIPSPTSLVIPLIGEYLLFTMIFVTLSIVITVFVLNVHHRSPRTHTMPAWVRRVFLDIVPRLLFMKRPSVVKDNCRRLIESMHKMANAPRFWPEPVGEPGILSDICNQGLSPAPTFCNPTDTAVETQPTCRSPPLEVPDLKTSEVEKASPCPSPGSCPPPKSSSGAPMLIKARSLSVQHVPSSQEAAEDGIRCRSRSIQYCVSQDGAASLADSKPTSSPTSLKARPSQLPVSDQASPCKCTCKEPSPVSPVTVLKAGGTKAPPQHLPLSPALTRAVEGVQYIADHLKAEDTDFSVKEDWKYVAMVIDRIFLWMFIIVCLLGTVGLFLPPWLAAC
Sequence of Neuronal acetylcholine receptor; alpha4/beta2 (P12390 whole entry): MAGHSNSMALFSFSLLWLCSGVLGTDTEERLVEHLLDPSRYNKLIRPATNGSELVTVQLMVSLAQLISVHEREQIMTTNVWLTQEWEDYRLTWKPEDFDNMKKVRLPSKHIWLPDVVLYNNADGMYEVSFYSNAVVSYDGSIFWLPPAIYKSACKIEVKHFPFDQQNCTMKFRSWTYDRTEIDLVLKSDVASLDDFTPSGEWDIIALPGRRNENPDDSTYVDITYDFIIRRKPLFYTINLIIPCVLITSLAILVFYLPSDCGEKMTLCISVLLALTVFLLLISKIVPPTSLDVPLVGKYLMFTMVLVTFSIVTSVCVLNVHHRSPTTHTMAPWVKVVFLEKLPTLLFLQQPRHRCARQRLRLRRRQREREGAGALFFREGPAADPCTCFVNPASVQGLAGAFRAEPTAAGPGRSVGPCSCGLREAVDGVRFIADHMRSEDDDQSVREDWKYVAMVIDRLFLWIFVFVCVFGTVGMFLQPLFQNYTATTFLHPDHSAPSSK
Sequence of Synaptic vesicular amine transporter (Q01827 whole entry): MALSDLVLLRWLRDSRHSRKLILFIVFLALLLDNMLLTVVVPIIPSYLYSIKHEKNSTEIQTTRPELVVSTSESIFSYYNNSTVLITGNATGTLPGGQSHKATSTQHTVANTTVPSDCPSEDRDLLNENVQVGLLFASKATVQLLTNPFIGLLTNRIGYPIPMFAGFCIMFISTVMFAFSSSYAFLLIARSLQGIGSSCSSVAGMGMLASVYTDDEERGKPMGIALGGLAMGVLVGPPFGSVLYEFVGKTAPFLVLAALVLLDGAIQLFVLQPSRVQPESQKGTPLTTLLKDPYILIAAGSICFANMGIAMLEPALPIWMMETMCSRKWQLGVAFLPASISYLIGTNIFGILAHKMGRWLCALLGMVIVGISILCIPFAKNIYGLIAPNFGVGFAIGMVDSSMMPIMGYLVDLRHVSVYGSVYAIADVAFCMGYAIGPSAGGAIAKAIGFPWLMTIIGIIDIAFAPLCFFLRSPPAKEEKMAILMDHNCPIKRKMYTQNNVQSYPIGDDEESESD
Sequence of Sodium-dependent dopamine transporter (P23977 whole entry): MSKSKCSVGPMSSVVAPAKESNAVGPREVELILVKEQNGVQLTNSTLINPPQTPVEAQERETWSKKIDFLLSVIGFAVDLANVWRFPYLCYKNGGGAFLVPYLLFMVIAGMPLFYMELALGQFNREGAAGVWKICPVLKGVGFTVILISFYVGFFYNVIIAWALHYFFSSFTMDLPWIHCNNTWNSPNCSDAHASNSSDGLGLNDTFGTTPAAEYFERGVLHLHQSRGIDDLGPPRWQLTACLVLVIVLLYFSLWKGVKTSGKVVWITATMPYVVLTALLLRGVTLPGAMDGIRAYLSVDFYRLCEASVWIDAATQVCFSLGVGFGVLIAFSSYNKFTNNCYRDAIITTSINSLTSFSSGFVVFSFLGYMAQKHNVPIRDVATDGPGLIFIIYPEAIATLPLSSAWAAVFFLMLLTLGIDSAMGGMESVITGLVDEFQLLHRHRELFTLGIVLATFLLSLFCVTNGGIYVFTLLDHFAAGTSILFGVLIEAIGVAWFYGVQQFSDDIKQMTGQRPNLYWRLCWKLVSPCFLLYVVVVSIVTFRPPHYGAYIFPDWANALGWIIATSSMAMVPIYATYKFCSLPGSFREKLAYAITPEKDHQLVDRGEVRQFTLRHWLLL
Sequence of Neuronal acetylcholine receptor subunit alpha-7 (Q05941 whole entry): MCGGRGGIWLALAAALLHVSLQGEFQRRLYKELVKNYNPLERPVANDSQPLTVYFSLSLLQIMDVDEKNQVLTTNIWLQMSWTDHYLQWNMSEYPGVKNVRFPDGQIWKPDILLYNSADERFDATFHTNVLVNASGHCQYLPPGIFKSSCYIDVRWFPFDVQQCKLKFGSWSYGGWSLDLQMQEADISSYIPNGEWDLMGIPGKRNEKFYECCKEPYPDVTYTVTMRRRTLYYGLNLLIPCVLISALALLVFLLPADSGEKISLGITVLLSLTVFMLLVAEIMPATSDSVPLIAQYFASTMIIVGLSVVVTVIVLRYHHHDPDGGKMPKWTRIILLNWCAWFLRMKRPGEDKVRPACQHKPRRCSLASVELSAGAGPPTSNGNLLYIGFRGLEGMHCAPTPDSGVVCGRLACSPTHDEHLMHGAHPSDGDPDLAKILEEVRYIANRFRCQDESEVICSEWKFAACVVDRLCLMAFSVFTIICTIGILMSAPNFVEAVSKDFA

Compound | Ki [1] | Ki [2] | Ki [3] | Ki [4] | Ki [5] | IC50 [4] | IC50 [3]
CN1[C@@H](CCc2ccccc2)CCC[C@H]1C[C@H](O)c1ccccc1 | 3.09 µM | 1.39 µM | 1.77 µM | 39.3 µM | 4.27 µM |  | 
CN1[C@H](C[C@H](O)c2ccccc2)CCC[C@@H]1/C=C/c1ccccc1 |  | 0.11 µM |  |  | 19 µM | > 100 µM | 
CN1[C@@H](CCc2ccccc2)CCC[C@H]1C[C@@H](O)c1ccccc1 | 6.6 µM | 0.57 µM |  |  | 7.3 µM | > 100 µM | > 100 µM
CN1[C@@H](C[C@H](O)c2ccccc2)CCC[C@H]1/C=C/c1ccccc1 |  | 0.96 µM |  |  | 3.75 µM | > 100 µM | > 100 µM
CCC1(O)CC2c3cc(OC)c(OC)cc3CCN2CC1CC(C)C (configuration not stated) | 0.028 µM |  |  |  |  |  | 
CN1[C@H](C[C@@H](O)c2ccccc2)CCC[C@@H]1/C=C/c1ccccc1 |  | 0.29 µM |  |  | 7.5 µM | > 100 µM | > 100 µM
CN1[C@H](CCc2ccccc2)CCC[C@@H]1C[C@H](O)c1ccccc1 | 3.01 µM | 1.26 µM | 33.6 µM |  | 2.22 µM | > 100 µM | 
CN1[C@@H](C[C@@H](O)c2ccccc2)CCC[C@H]1/C=C/c1ccccc1 |  |  | 4.19 µM | 1.7 µM | 0.044 µM |  | 
CN1[C@H](CCc2ccccc2)CCC[C@@H]1C[C@@H](O)c1ccccc1 [8R-hydroxylobelane] | 1.98 µM | 1.88 µM | 2.36 µM | 1.21 µM | 0.15 µM |  | 
CN1[C@@H](CC(=O)c2ccccc2)CCC[C@H]1C[C@H](O)c1ccccc1 [LOBELINE] |  | 28.2 µM |  |  | 46.8 µM |  | 
